Results as given in ChEMBL document CHEMBL1201862, “PubChem BioAssay data set” (2004).
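Each compound was tested at five concentrations against cells in 96-well plates for 48 hours. GI50 is the concentration that inhibits growth by half.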 Active and inactive are the calls of the source. No stated cut-off is given here; in the data, active = GI50 up to about 1.1 µM and inactive = higher.

Tests used:
Experiment in all cases: NCI-60 cell line screen, 48 h
[1] = tested on: COLO 205
[2] = tested on: DU-145
[3] = tested on: HCT-15
[4] = tested on: HOP-62
[5] = tested on: HT-29
[6] = tested on: M14
[7] = tested on: MDA-MB-231
[8] = tested on: MDA-MB-435
[9] = tested on: MOLT-4
[10] = tested on: Malme-3M
[11] = tested on: OVCAR-3
[12] = tested on: OVCAR-8
[13] = tested on: RPMI-8226
[14] = tested on: RXF 393
[15] = tested on: SF-539
[16] = tested on: SK-MEL-28
[17] = tested on: SNB-19
[18] = tested on: SW-620
[19] = tested on: UACC-62
[20] = tested on: HL-60

| Structure (SMILES) | GI50 [1] | GI50 [2] | GI50 [3] | GI50 [4] | GI50 [5] | GI50 [6] | GI50 [7] | GI50 [8] | GI50 [9] | GI50 [10] | GI50 [11] | GI50 [12] | GI50 [13] | GI50 [14] | GI50 [15] | GI50 [16] | GI50 [17] | GI50 [18] | GI50 [19] | GI50 [20] |
| --- | --- | --- | --- | --- | --- | --- | --- | --- | --- | --- | --- | --- | --- | --- | --- | --- | --- | --- | --- | --- |
| CN(CCN)[C@H](CSSC[C@@H](c1ccccc1O)N(C)CCN)c1ccccc1O | 24.8 µM (inactive) | 14.8 µM (inactive) | 5.33 µM | 12.1 µM (inactive) | 9.55 µM (inactive) | 13.5 µM (inactive) | 8.81 µM (inactive) | 18 µM (inactive) | 4.73 µM (inactive) | 16.3 µM (inactive) | 8.38 µM (inactive) | 9.04 µM (inactive) | 12.9 µM (inactive) | 18.9 µM (inactive) | 15.1 µM (inactive) | 14.3 µM (inactive) | 12.1 µM (inactive) | 15.7 µM (inactive) | 10 µM (inactive) | – |
| COc1cccc(CC(=O)N2CCN(CCCc3ccccc3)CC2)c1 | 76.7 µM (inactive) | > 100 µM (inactive) | 45.9 µM | > 100 µM (inactive) | 31.4 µM (inactive) | 63.8 µM (inactive) | > 100 µM (inactive) | 70.6 µM (inactive) | 54.7 µM (inactive) | – | 60.1 µM (inactive) | 53 µM (inactive) | 43.6 µM (inactive) | – | > 100 µM (inactive) | > 100 µM (inactive) | > 100 µM (inactive) | > 100 µM (inactive) | > 100 µM (inactive) | 61.2 µM (inactive) |
| Cc1ccc(S(=O)(=O)N2CCN(CCO)CCN(S(=O)(=O)c3ccc(C)cc3)CCN(CCO)CC2)cc1 | 15.3 µM (inactive) | 15 µM (inactive) | 18.6 µM | 27.5 µM (inactive) | 12.2 µM (inactive) | 17.1 µM (inactive) | 21.7 µM (inactive) | 15.1 µM (inactive) | 19.7 µM (inactive) | – | 18.7 µM (inactive) | 28 µM (inactive) | – | 13.9 µM (inactive) | 15.8 µM (inactive) | 16.3 µM (inactive) | 37.8 µM (inactive) | 33.7 µM (inactive) | 18.2 µM (inactive) | 18 µM (inactive) |
| O=C1OC(c2ccccc2)=N/C1=C\c1cccc(F)c1 | > 100 µM (inactive) | > 100 µM (inactive) | > 100 µM | 38.6 µM (inactive) | > 100 µM (inactive) | 57.8 µM (inactive) | > 100 µM (inactive) | 75 µM (inactive) | 32.3 µM (inactive) | – | 37 µM (inactive) | 26.2 µM (inactive) | 19.7 µM (inactive) | > 100 µM (inactive) | – | 96.6 µM (inactive) | 55 µM (inactive) | > 100 µM (inactive) | > 100 µM (inactive) | 24.9 µM (inactive) |
| CC1(C)OC(=O)N(c2ccccc2)C12C=Cc1cccc([N+](=O)[O-])c1O2 (stereo not given) | 45.1 µM (inactive) | > 100 µM (inactive) | 90.2 µM | > 100 µM (inactive) | 98.9 µM (inactive) | 51.6 µM (inactive) | > 100 µM (inactive) | 33 µM (inactive) | 15.1 µM (inactive) | – | > 100 µM (inactive) | 92.7 µM (inactive) | 53.3 µM (inactive) | > 100 µM (inactive) | – | 90.8 µM (inactive) | > 100 µM (inactive) | > 100 µM (inactive) | 80 µM (inactive) | 17.5 µM (inactive) |
| CCCC[C@@H](C)/C=C1\CN2CCC[C@H]2[C@@](C)(OCc2ccccc2)[C@@H]1O | > 50 µM (inactive) | > 14.4 µM (inactive) | > 50 µM | 5.98 µM (inactive) | > 50 µM (inactive) | > 50 µM (inactive) | > 50 µM (inactive) | > 50 µM (inactive) | > 41.9 µM (inactive) | > 50 µM (inactive) | > 17.5 µM (inactive) | > 47.4 µM (inactive) | > 15.5 µM (inactive) | > 44.6 µM (inactive) | > 22.2 µM (inactive) | > 43 µM (inactive) | > 23.8 µM (inactive) | > 50 µM (inactive) | > 50 µM (inactive) | – |
